How the values were obtained:
Tolloid-like protein 2 = biological target: T1, Tolloid-like protein 2 (Homo sapiens, UniProt Q9Y6L7); assay: Inhibition of C-terminal Avi-6x-His epitope tagged and N-terminal human RAGE signal sequence tagged recombinant human TLL2 (26 to 1015 amino acids) expressed in CHOE1A cells incubated for 60 mins with promyostatin peptide substrate by FRET based assay; format: cell-based
T1 sequence (Q9Y6L7 whole entry): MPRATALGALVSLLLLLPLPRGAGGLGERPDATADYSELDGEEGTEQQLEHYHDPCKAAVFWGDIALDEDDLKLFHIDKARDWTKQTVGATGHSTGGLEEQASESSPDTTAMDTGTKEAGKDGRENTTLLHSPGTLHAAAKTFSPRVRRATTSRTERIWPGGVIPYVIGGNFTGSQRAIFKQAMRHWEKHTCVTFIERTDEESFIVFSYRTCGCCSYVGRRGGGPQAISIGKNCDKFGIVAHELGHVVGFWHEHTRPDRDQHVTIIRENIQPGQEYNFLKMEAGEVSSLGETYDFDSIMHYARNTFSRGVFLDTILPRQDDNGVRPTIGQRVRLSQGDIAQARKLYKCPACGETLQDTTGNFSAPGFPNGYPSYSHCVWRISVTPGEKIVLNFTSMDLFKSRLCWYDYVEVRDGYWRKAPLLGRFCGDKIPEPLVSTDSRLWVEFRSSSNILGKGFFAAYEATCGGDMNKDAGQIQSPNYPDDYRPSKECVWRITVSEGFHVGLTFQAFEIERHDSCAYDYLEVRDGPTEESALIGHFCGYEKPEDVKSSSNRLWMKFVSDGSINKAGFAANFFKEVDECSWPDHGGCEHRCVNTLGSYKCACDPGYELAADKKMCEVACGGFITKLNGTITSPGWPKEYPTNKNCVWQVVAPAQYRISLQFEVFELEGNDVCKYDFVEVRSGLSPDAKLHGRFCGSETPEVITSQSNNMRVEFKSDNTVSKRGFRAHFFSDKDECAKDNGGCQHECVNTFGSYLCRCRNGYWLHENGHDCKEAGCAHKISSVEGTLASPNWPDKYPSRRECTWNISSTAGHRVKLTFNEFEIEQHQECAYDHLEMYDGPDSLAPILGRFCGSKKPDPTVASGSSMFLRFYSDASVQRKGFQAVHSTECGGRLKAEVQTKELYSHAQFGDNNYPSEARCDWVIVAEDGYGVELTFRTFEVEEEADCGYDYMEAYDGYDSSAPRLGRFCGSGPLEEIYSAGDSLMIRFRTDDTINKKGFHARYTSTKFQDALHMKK

[1] = Reduction in mature collagen deposition levels in human cardiac fibroblasts incubated for 24 to 48 hrs by immunostaining based assay; format: functional
[2] = biological target: T2, Bone morphogenetic protein 1 (Homo sapiens, UniProt P13497); assay: Inhibition of C-terminal FLAG-6x-His epitope tagged and N-terminal human RAGE signal sequence tagged human BMP1 (23 to 721 amino acids) expressed in CHO-E1A cells pre-incubated for 10 mins before promyostatin peptide substrate addition and measured after 60 mins using 0.5 nM BMP1 by FRET based assay; format: cell-based
T2 sequence (P13497 whole entry): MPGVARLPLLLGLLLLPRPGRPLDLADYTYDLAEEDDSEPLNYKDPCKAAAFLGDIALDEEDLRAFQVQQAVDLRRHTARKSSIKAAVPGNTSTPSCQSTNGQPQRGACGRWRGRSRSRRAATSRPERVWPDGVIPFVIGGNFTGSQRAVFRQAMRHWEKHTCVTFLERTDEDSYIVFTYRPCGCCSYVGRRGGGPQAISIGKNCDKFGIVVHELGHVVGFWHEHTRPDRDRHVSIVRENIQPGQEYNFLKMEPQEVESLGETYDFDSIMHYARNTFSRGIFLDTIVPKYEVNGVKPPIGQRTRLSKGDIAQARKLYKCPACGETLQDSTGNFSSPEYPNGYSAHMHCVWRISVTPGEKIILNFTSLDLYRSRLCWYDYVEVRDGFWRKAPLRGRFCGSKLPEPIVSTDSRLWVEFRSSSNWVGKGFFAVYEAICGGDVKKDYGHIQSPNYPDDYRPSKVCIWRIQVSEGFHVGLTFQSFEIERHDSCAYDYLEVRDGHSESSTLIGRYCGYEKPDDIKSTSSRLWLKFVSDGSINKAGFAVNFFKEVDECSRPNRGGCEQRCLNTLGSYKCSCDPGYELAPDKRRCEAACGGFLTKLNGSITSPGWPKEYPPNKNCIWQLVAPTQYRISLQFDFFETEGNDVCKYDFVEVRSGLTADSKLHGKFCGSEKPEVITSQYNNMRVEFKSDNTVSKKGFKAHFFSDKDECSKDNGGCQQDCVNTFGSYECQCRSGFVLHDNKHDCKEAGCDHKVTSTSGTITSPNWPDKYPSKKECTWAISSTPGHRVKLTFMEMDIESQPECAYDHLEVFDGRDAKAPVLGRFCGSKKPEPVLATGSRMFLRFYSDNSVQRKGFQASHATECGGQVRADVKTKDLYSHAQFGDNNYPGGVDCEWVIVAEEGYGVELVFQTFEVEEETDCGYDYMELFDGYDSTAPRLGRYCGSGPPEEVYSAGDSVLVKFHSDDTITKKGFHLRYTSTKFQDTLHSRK

Tolloid-like protein 1 = Tolloid-like protein 1 (Homo sapiens, UniProt O43897, I156V/N221S/V284A); assay: Inhibition of recombinant human TLL1 I156V/N221S/V284A mutant expressed in CHOE1A cells pre-incubated for 10 mins before promyostatin peptide substrate addition and measured after 60 mins by FRET based assay; format: cell-based
Sequence of Tolloid-like protein 1 (O43897 148-1013 I156V/N221S/V284A limits assumed): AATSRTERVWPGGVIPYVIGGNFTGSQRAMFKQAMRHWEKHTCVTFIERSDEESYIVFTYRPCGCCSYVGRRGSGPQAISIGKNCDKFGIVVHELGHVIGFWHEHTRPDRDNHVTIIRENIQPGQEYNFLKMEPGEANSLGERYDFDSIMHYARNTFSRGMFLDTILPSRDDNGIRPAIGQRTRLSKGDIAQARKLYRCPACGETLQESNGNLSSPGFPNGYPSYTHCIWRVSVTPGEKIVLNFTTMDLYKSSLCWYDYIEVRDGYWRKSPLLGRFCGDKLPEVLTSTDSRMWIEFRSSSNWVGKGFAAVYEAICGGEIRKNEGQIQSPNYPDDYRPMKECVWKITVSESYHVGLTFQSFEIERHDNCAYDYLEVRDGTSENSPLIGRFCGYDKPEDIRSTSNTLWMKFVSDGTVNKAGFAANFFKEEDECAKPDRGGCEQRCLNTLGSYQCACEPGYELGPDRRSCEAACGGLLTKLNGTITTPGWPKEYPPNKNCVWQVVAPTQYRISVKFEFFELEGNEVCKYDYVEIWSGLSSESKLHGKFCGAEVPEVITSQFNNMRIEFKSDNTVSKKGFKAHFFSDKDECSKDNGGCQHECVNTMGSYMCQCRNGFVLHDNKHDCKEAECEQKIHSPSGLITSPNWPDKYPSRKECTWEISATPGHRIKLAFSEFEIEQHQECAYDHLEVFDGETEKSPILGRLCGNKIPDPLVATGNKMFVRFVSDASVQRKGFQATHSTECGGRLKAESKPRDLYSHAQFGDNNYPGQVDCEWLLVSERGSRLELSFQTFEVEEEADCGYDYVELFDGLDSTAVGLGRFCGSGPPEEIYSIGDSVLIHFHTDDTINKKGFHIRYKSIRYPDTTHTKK

[3] = biological target: T2, Bone morphogenetic protein 1; assay: Inhibition of C-terminal FLAG-6x-His epitope tagged and N-terminal human RAGE signal sequence tagged human BMP1 (23 to 721 amino acids) expressed in CHO-E1A cells pre-incubated for 10 mins before promyostatin peptide substrate addition and measured after 30 mins using 50 nM BMP1 by FRET based assay; format: cell-based
[4] = Reduction in PICP levels in human cardiac fibroblasts incubated for 24 to 48 hrs by ELISA; format: functional

SMILES | IC50 (Tolloid-like protein 2) [nM] | IC50 [1] [nM] | IC50 [2] [nM] | IC50 (Tolloid-like protein 1) [nM] | IC50 [3] [nM] | IC50 [4] [nM]
CCCCC[C@@H](C(=O)NCNC(=O)c1cccc(-c2ccc(CC(=O)O)c(OCC)c2)c1)[C@@H](CC)N(O)C=O | < 631 | < 1580 | < 126 | < 398 | < 251 | < 20000
CCCCC[C@@H](C(=O)NCNC(=O)c1cccc(-c2ccc(CC(=O)N[C@@H](CC(=O)O)C(=O)O)c(OCC)c2)n1)[C@@H](CC)N(O)C=O | < 631 | < 1580 | < 126 | < 398 | < 251 | < 20000
CCCCC[C@@H](C(=O)NCNC(=O)c1ccnc(-c2ccc(C(=O)O)c(OCC)c2)n1)[C@@H](CC)N(O)C=O | < 631 | < 1580 | < 126 | < 398 | < 251 | < 20000
CCCCC[C@@H](C(=O)NCNC(=O)c1cccc(-c2ccc(C(=O)N[C@@H](CC(=O)O)C(=O)O)c(C)c2)n1)[C@@H](CC)N(O)C=O | < 631 |  | < 126 | < 398 | < 251 | < 20000
CCCCC[C@@H](C(=O)NCNC(=O)c1cccc(-c2ccc(C(=O)N[C@@H](CCC(=O)O)C(=O)O)c(OCC)c2)n1)[C@@H](CC)N(O)C=O | < 631 |  | < 126 | < 398 | < 251 | < 20000
CCCCC[C@@H](C(=O)NCNC(=O)c1cccc(-c2ccc(C(=O)N[C@@H](CC(=O)O)C(=O)O)c(OCC)c2)n1)[C@@H](CC)N(O)C=O | < 631 | < 1580 | < 126 | < 398 | < 251 | < 20000
CCCCC[C@@H](C(=O)NCNC(=O)c1ccnc(-c2ccc(P(=O)(O)O)c(OCC)c2)n1)[C@@H](CC)N(O)C=O | < 631 | < 1580 | < 126 | < 398 | < 251 | < 20000
CCCCC[C@@H](C(=O)NCNC(=O)c1cccc(-c2ccc(C(=O)N[C@@H](CC(=O)O)C(=O)O)cc2)n1)[C@@H](CC)N(O)C=O | < 631 |  | < 126 | < 398 | < 251 | < 20000
CCCCC[C@@H](C(=O)NCNC(=O)c1cccc(-c2ccc(C(=O)N[C@@H](CCC(=O)O)C(=O)O)cc2)n1)[C@@H](CC)N(O)C=O | < 631 |  | < 126 | < 398 | < 251 | < 20000
CCCCC[C@@H](C(=O)NCNC(=O)c1cccc(-c2cc(C(=O)O)cc(S(N)(=O)=O)c2)n1)[C@@H](CC)N(O)C=O | < 631 | < 1580 | < 126 | < 398 | < 251 | < 20000
CCOc1cc(-c2cccc(C(=O)NCNC(=O)[C@H](CCc3ccccc3)[C@@H](CC)N(O)C=O)n2)ccc1C(=O)O |  | < 1580 | < 126 |  | < 251 | < 20000
CCCCC[C@@H](C(=O)NCNC(=O)c1cncc(-c2ccc(P(=O)(O)O)c(OCC)c2)n1)[C@@H](CC)N(O)C=O | < 631 | < 1580 | < 126 | < 398 | < 251 | < 20000
CCCCC[C@@H](C(=O)NCNC(=O)c1cccc(-c2cc(OCC)cc(C(=O)O)c2)n1)[C@@H](CC)N(O)C=O | < 631 | < 1580 | < 126 | < 398 | < 251 | < 20000
CCCCC[C@@H](C(=O)NCNC(=O)c1cccc(-c2ccc(C(=O)N[C@H](CC(=O)O)C(=O)O)cc2)n1)[C@@H](CC)N(O)C=O | < 631 |  | < 126 | < 398 | < 251 | < 20000
CCCCC[C@@H](C(=O)NCNC(=O)c1cccc(-c2cc(OCC)cc(C(=O)NCCN)c2)n1)[C@@H](CC)N(O)C=O |  | < 1580 | < 126 |  | < 251 | < 20000
